Test results taken from paper PMC11603075 (Communications Biology, 2024).

Biological target: T1, KDM5C (Homo sapiens, UniProt P41229)
T1 construct: KDM5C 1– 765; made in house; host or cells: Sf9 cells
T1 sequence (P41229 1-765): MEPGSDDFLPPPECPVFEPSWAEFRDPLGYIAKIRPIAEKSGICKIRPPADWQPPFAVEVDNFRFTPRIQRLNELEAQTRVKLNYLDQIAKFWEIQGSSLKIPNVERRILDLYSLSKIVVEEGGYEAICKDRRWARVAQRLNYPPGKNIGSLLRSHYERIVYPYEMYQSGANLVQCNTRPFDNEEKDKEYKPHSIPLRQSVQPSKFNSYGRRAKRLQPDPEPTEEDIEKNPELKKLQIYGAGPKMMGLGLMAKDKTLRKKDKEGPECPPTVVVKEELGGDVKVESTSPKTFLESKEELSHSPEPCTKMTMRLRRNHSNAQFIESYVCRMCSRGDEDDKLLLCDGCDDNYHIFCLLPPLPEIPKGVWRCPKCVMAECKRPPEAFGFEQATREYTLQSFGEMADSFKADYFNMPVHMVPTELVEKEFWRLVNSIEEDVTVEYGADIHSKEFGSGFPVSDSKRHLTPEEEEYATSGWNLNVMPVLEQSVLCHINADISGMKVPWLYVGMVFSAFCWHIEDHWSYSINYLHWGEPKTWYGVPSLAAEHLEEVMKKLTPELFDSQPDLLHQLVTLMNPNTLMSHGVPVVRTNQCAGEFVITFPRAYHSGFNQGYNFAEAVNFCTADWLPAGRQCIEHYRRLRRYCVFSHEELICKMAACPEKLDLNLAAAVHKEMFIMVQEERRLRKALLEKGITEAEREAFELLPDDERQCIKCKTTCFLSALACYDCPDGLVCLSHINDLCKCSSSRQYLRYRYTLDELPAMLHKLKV
Assay: MALDI–TOF MS time course / specific activity, KDM5C
Assay type: biochemical
Conditions: for specific activity: KDM5C
Protocol: MS-based screening assays with peptides and calf thymus histones were as reported; see Supplementary Table 6 for conditions. Time course assays were based on reported procedures. In brief, equal volumes of the enzyme and substrate solutions were combined to initiate the reaction; 10 µL of 2% (v/v) formic acid (HCOOH) in ddH2O or 100% methanol was added to 10 µL of the reaction mixture to quench reactions at different time points. Unless otherwise stated, time course assays were carried out in triplicate. In some cases, LC–MS was used instead of MALDI-TOF MS to avoid a MALDI matrix induced artefact with the hydroxylated product (Supplementary Fig. 16).
Data collected from time course assay(s) were used to plot the % conversion vs time (min) using GraphPad Prism5 version 5.04; the resultant slopes were used to fit a line with linear regression to the first-order region of the reaction. The resultant gradient was then converted from % product formation min^−1 to amount of peptide converted (demethylation and / or hydroxylation) in µM.
Supplementary Figure 4 Activity of KDM5C (black circles) with H2a(1–20)R3me2a is greater than that of KDM4E (white circles). (a) A MALDI–TOF MS time course graph of product formation (%) of KDM4E ( −14 Da/+16 Da) and KDM5C (−14 Da) reaction with H2a(1–20)R3me2a versus time (minutes). ~60% substrate depletion was reached after 105 minutes with KDM4E; ~95% of H2a(1–20)R3me2a was demethylated after 1 05 minut e s wit h K DM5 C. (b ) Comparison of specific activities of KDM4E with H2a(1–20)R3me2a (0.15 […]
bars; +/- SD; n = 3 (independent assays). See Supplementary Table 6 for assay condit ions.
(also on this page, place not known: 105 minutes KDM5C. (b) H2a(1 –20)R3me2a with conditions. specific activity (pmol·min-1·μM-1))
(1 picture or pasted object on this page, not shown here)
[ E nz ym e] [Peptide] [2OG] [Ascorbate] [(NH4)2F e(S O4)2] [TCEP] Buffer pH7.5 Enzyme Cognate substrate (mM) (mM) (mM) (mM) (mM) (mM) [HE PE S]
Supplementary Table 6 Summary of MS assay conditions for substrate screening. These conditions enabled efficient turnover of established substrates. Reactions were carried out at 37 °C unless otherwise st ated. […]

- product formation (−14 Da) (0 min, replicate 1): 0%
- product formation (−14 Da) (0 min, replicate 2): 0%
- product formation (−14 Da) (0 min, replicate 3): 0%
- product formation (−14 Da) (5 min, replicate 1): -4.611%
- product formation (−14 Da) (5 min, replicate 2): 1.214%
- product formation (−14 Da) (5 min, replicate 3): 6.766%
- product formation (−14 Da) (15 min, replicate 1): 6.633%
- product formation (−14 Da) (15 min, replicate 2): 6.871%
- product formation (−14 Da) (15 min, replicate 3): 19.5603%
- product formation (−14 Da) (30 min, replicate 1): 38.5829%
- product formation (−14 Da) (30 min, replicate 3): 44.7254%
- product formation (−14 Da) (45 min, replicate 1): 64.1732%
- product formation (−14 Da) (45 min, replicate 2): 64.8428%
- product formation (−14 Da) (45 min, replicate 3): 72.262%
- product formation (−14 Da) (60 min, replicate 1): 81.9609%
- product formation (−14 Da) (60 min, replicate 2): 81.6263%
- product formation (−14 Da) (60 min, replicate 3): 82.8852%
- product formation (−14 Da) (75 min, replicate 1): 85.9119%
- product formation (−14 Da) (75 min, replicate 2): 87.0734%
- product formation (−14 Da) (75 min, replicate 3): 90.3242%
- product formation (−14 Da) (90 min, replicate 1): 92.0497%
- product formation (−14 Da) (90 min, replicate 2): 90.1323%
- product formation (−14 Da) (90 min, replicate 3): 97.0348%
- product formation (−14 Da) (105 min, replicate 1): 95.3885%
- product formation (−14 Da) (105 min, replicate 2): 93.3144%
- product formation (−14 Da) (105 min, replicate 3): 100%
- specific activity (mean of n = 3, SD 0.006): 0.37 pmol min^−1 µM^−1
- specific activity (repeat 1): 0.3803 pmol·min-1·μM-1
- specific activity (repeat 2): 0.3775 pmol·min-1·μM-1
- specific activity (repeat 3): 0.3654 pmol·min-1·μM-1
- RDM activity of KDM5C relative to KDM4E (times) (ratio of specific activities): 2.5 times
Substance: Ac - SGR [ me 2a ] GKQ GGKAR AKAKT R SSR [H2a(1–20)R3me2a, H2a(1–20)R3me2a without a biotin tag]
